The subject of the assay is male subjects. In words: Randomized placebo-controlled double blind exercise test: rehydration solution, 75 min treadmill run in 30° C. heat, then sprint to volitional exhaustion. The assay is classed as in vivo, human. The source says:
Ten male subjects were selected to participate in four experimental tests, described below. The study design was a randomized placebo-controlled double blind test. These tests were identical, except that a different rehydration solution was consumed during each session. The rehydration solutions are:
(a) Non-nutritive KOOL-AID®;
(b) Non-nutritive KOOL-AID® and betaine (5 g/l);
(d) GATORADE® and betaine (5 g/l).
The order of treatment for each subject was randomized.
The following measurements were taken throughout each of the four experimental tests:
1) Hydration variables were measured each day, including urine specific gravity and color, body weight, plasma osmolity.
2) Blood variables were sampled during each trial, including, hematocrit, hemoglobin, osmolality, glucose, lactate.
3) Physiological variables were measured during each trial, such as time to exhaustion (duration of final sprint), heart rate, blood pressure, oxygen consumption, minute ventilation, mean weighted skin temperature, rectal temperature, whole body sweat rate.
4) Perceptual variables were recorded, such as rating of perceived exertion (Borg scale) during the exercise test, thermal stress during the exercise test, thirst sensation during the exercise test.
Each subject participated in four experimental tests, performed at the same time of day for each subject, using the same posture at each stage of testing. Experimental tests were randomized. Trials were conducted in an environmental chamber controlled at 30° C.
When they arrived at the test center at 7:00 a.m., the body weight was measured, a blood sample was taken and the specific gravity of the urine was measured. In general, the subjects were mildly dehydrated, losing approximately 1% body weight. […] Subsequently, thereto, they then entered an environmental chamber which was maintained at a temperature of 30° C. and they stood for thirty minutes to effect fluid and thermal equilibration.
Various measurements were taken of each subject including blood pressure, urine specific gravity, body weight, blood pressure, plasma, osmolality and a blood sample when in the environmental chamber prior to the test. Each then performed cycling and walking exercise for 60-90 minutes at 50-55% VO2max so that they each lost about 3% of body weight.
At about 9:30 a.m., they consumed one of the above fluids.
The total volume was ingested in five equal portions over 25 minutes. (This increased the body weight change to a −1.5% level). They each stood an additional twenty minutes to allow gastric emptying. Then they began a treadmill run for 75 minutes at 65% VO2max. They finished the exercise in the heat by a sprinting to volitional exhaustion at a treadmill pace that elicits 90% VO2max. At the conclusion, they stood in the environmental chamber for additional measurements during a 15 minute recovery period. They left the chamber, then ate a meal and drank fluids.
The test was repeated for each person three more times, except each time they ingested a different one of the fluids so that at the end of the test, each subject had ingested each one of the four fluids. Subjects were instructed to match the diet they ate before the initial experiment, during the three subsequent trials. […]

Take `C[N+](C)(C)CC(=O)[O-]` [betaine, trimethylglycine]: for the setting “GATORADE trials, betaine 5 g/l”, the “increased plasma lactate levels 15 minutes after the sprint” value was 17% and the “increased plasma lactate levels immediately after the sprint” value is given as 10%. The “greater oxygen uptake (aerobic metabolism) while sprinting” value (GATORADE trials, betaine 5 g/l vs GATORADE alone) came out at 6%. Also, the “increased plasma lactate levels after the sprint” value (KOOL-AID trials, betaine 5 g/l) is “This effect was not seen”. Besides, the “greater oxygen uptake (aerobic metabolism) while sprinting” value (KOOL-AID trials, betaine 5 g/l vs KOOL-AID alone) was “This effect was not seen”.
